The source of these data is paper PMC9960827, “Cloning and Characterization of Trypanosoma congolense and T. vivax Nucleoside Transporters Reveal the Potential of P1-Type Carriers for the Discovery of Broad-Spectrum Nucleoside-Based Therapeutics against Animal African Trypanosomiasis” (International Journal of Molecular Sciences, 2023).

One data set deals with T. equiperdum. Further details: method as in Hulpia et al. [38]. The following applies: compound marked *; ref Hulpia et al. [38]; cited from earlier work.
The test system of data set [1] is T. vivax. Further details: method as in Mabille et al. [69]. The following applies: added for comparison only; ref Mabille et al. [69]; cited from earlier work.
Another data set relates to T. evansi. Further details: method as in Hulpia et al. [38]. The following applies: compound marked *; ref Hulpia et al. [38]; cited from earlier work.
For data set [2], the system named is T. congolense IL3000. The arrangement: method as in Hulpia et al. [38]. The following applies: values marked *; ref Hulpia et al. [38]; cited from earlier work.
The test system of data set [3] is T.b.b. B48. Further details: method as in Hulpia et al. [38]. The following applies: compound marked *; ref Hulpia et al. [38]; cited from earlier work.
The target of data set [4] is T. congolense adenosine transporter. Kind of data set: [3H]-adenosine uptake and its inhibition in T. congolense IL3000 bloodstream forms. Type of data set: cell-based, Trypanosoma congolense. In short, it runs like this: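 Bloodstream-form T. congolense IL3000 (1 × 10^7 cells) in HEPES/bicarbonate buffer pH 7.3 took up [3H]-adenosine over a set interval, with or without inhibitor, ending by ice-cold unlabeled substrate stop or centrifugation through oil. Pellet radioactivity gave IC50 by sigmoid fit; Ki followed by Cheng–Prusoff using adenosine Km.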

Data set [5] deals with human embryonic kidney (HEK) cells. Kind of data set: Resazurin toxicity assay on human embryonic kidney cells. It is filed as cell-based. In short, it runs like this:
(§1)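 Reported figures represent means over a minimum of three separate-day experiments. In every experiment, EC50 is obtained by nonlinear fitting to a variable-slope sigmoid.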
On the technique in general: Resazurin is reduced to fluorescent resorufin, in cell work by metabolically active cells.

The subject of another data set is T. b. brucei. The following applies: also CNS stage; oral and intraperitoneal administration; cited from earlier work.
For data set [6], the system named is T.b.b. B48. Kind of data set: Alamar Blue (resazurin) assay, T. b. brucei B48. It is filed as cell-based, Trypanosoma brucei brucei. The following applies: against T. b. brucei B48. In a few lines: as §1
For data set [7], the system named is T. congolense IL3000. Kind of data set: Alamar Blue (resazurin) assay, T. congolense IL3000. Type of data set: cell-based, Trypanosoma congolense. The following applies: against T. congolense. In short, it runs like this: as §1
Data set [8] relates to T. congolense 6C3. The arrangement: method as in Hulpia et al. [38]. The following applies: values marked *; ref Hulpia et al. [38]; cited from earlier work.
For a further data set, the system named is L. mexicana Cas9. Kind of data set: Resazurin drug sensitivity assay, LmexCas9. It is filed as cell-based, Leishmania mexicana. The following applies: resazurin, promastigotes; read-out: LmexCas9 EC50. In short, it runs like this: as §1
For a further data set, the target named is TcoAT1. It is filed as cell-based, Trypanosoma congolense. In short, it runs like this:
(§2)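 Transporter genes were expressed in an L. mexicana line lacking NT1 and NT2 (SUPKO), and 1 × 10^7 cells in HEPES/bicarbonate buffer pH 7.3 took up radiolabeled permeant through an oil layer, with or without inhibitor. Uptake was stopped with ice-cold unlabeled substrate or by centrifugation, and pellets were counted. IC50 against radiolabeled adenosine was converted to Ki by Cheng–Prusoff using the permeant Km.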

The test system of data set [9] is T. congolense 6C3. Kind of data set: microbe, parasite or virus in culture. Type of data set: cell-based, Trypanosoma congolense. The following applies: resistance factor = EC50 (test strain)/EC50(control strain). In a few lines: as §1
The next data set addresses TvxNT3 (Trypanosoma vivax, UniProt F9WV62). Kind of data set: cell-based. Type of data set: cell-based. In a few lines: as §2
The next data set concerns L. mexicana SUPKO+TcoAT1. Kind of data set: microbe, parasite or virus in culture. Type of data set: cell-based, Leishmania mexicana. In short, it runs like this:
as §1

The subject of a further data set is L. mexicana SUPKO+TvxNT3. Description: microbe, parasite or virus in culture. It is filed as cell-based, Leishmania mexicana. The following applies: resazurin, promastigotes; read-out: SUPKO+TvxNT3 EC50. In a few lines: as §1
A further data set relates to L. mexicana SUPKO. Kind of data set: microbe, parasite or virus in culture. Type of data set: cell-based, Leishmania mexicana. In short, it runs like this: as §1
The test system of data set [10] is T. vivax. Description: T. vivax EC50 (from Mabille et al.). Type of data set: cell-based, Trypanosoma vivax. The following applies: from Table 8 data.
The next data set relates to T. brucei cells. The arrangement: method as in PMID 30475806. The following applies: T. brucei cells treated with the drug; cited from earlier work.

Chain of TvxNT3 (F9WV62 entry or part of it): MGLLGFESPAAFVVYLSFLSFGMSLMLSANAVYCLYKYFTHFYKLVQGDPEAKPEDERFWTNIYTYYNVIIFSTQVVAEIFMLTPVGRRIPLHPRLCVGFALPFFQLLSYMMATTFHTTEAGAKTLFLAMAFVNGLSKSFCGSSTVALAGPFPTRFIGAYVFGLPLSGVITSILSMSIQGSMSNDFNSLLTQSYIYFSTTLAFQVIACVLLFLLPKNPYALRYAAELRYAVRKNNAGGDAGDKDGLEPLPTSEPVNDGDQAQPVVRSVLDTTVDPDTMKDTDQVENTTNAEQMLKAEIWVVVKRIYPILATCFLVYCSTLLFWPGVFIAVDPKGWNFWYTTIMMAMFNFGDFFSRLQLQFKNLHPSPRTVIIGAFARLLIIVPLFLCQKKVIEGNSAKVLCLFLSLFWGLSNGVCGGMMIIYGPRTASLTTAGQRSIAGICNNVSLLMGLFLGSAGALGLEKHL

One may read the EC50 as the concentration at which the effect is half-maximal. In general, Ki refers to the dissociation constant of the complex between target and ligand, obtained from inhibition or displacement. For the compound `Nc1ncnc2c1ccn2C1OC(CO)CC1O` (stereo not drawn) [FH7429_d, 3′-deoxytubercidin], the concentration for a half-maximal effect (EC50) in the data set on T. equiperdum was 0.0026 ± 0.0006 µM; in the data set with T. vivax [1] it was 3.48 ± 0.09 µM; in the data set on T. evansi, 0.017 ± 0.002 µM; with T. congolense IL3000 [2], 0.021 ± 0.001 µM; in the data set with T.b.b. B48 [3], 0.25 ± 0.02 µM; in data set [5] (resazurin, 96 well plates, read-out: HEK EC50), > 200 µM. Moreover, the 50% effective concentration (EC50) in the data set with T. congolense 6C3 [8] was 0.019 ± 0.002 µM; in the data set with L. mexicana Cas9, 15.1 ± 1.7 µM; in the data set with L. mexicana SUPKO+TcoAT1 (resazurin, promastigotes, read-out: SUPKO+TcoAT1 EC50) it was 65.3 ± 7.6 µM; in the data set with L. mexicana SUPKO+TvxNT3, > 100 µM; with L. mexicana SUPKO (resazurin, promastigotes, read-out: SUPKO EC50), > 100 µM. The Ki in data set [4] (0.05 µM [3H]-adenosine, 30 s, IC50 converted to Ki, read-out: Ki on the transport of [3H]-adenosine) turned out to be 319 ± 93 µM; at TcoAT1 (0.05 µM [3H]-adenosine, 10 s, IC50 converted to Ki, read-out: Ki on the transport of [3H]-adenosine) it was 810 ± 60 µM; at TvxNT3 (50 nM [3H]-adenosine, 90 s, IC50 converted to Ki, read-out: Ki on the transport of [3H]-adenosine), 388 ± 13 µM. In data set [4] (calculated from Km or Ki), the “ΔG0, Gibbs free energy of interaction” value is -4.76 kcal/mol. The “SI T. equiperdum” value in [5] (selectivity index = EC50 (HEK cells)/EC50 (T. equiperdum)) is >76,000. The “SI T. evansi” value in data set [5] (selectivity index = EC50 (HEK cells)/EC50 (T. evansi)) is on record as >11,800. Moreover, the “outcome in T. b. brucei mouse model” value in the data set on T. b. brucei is reported as “curative”. Moreover, the “fold more potent than tubercidin” value with T.b.b. B48 [6] was found to be 17.2 fold; with T. congolense IL3000 [7], 150 fold. Also, the ΔG0 with TcoAT1 (Gibbs free energy of binding, from Km or Ki) was -4.3 kcal/mol; on TvxNT3 (Gibbs free energy of interaction, from Km or Ki), -4.66 kcal/mol. For the same compound, the “T. congolense 6C3 RF” value in the data set on T. congolense 6C3 [9] is 0.91. In addition, in the data set with L. mexicana SUPKO+TcoAT1 (Resistance Factor relative to SUPKO), the “SUPKO+TcoAT1 RF (SUPKO)” value is listed as >1.53. The “SUPKO RF (Cas9)” value in the data set on L. mexicana SUPKO (Resistance Factor = EC50(SUPKO)/EC50(Cas9)) is recorded as >6.63. In addition, in the data set on T. vivax [10], the “fold higher EC50 against T. vivax compared to T. congolense” value is 10–165 fold.
As to `Nc1nc(N)nc(Nc2ccc([As]3SCC(CO)S3)cc2)n1` (stereo not drawn) [melarsoprol], the “cells bearing conjoined nuclei and double kinetoplasts” value in the data set with T. brucei cells is given as > 10%.
